Measurements as given in ChEMBL document CHEMBL3217675, “Diaryl ureaLDV peptidomimetics as 41integrin antagonists: synthesis, adhesion inhibition and toxicity evaluation on CCRF-CEM cell line” (Medchemcomm, 2012).
Active and inactive are the calls of the source. The rule behind the calls is not given here.

Tests used:
Integrin alpha-4/beta-1 [1] = target: T1, Integrin alpha-4/beta-1 (Homo sapiens, UniProt P05556+P13612); experiment: Antagonist activity at integrin alpha4beta1 receptor in human CCRF-CEM cells assessed as inhibition of cell adhesion to fibronectin after 1 hr by calcein AM staining-based fluorescence assay
Integrin alpha-4/beta-1 [2] = target: T1, Integrin alpha-4/beta-1; experiment: Antagonist activity at integrin alpha4beta1 receptor in human CCRF-CEM cells assessed as detachment of adherent cell from fibronectin at 1 to 500 uM after 24 to 48 hrs by MTT assay; assay type: cell-based
CCRF-CEM [3] = experiment: Cytotoxicity against human CCRF-CEM cells assessed as cell viability at 1 to 500 uM after 24 hrs by propidium iodide staining-based flow cytometric analysis
CCRF-CEM [4] = experiment: Cytotoxicity against human CCRF-CEM cells assessed as cell viability up to 200 uM after 24 hrs by propidium iodide staining-based flow cytometric analysis

T1 sequence (P05556 whole entry): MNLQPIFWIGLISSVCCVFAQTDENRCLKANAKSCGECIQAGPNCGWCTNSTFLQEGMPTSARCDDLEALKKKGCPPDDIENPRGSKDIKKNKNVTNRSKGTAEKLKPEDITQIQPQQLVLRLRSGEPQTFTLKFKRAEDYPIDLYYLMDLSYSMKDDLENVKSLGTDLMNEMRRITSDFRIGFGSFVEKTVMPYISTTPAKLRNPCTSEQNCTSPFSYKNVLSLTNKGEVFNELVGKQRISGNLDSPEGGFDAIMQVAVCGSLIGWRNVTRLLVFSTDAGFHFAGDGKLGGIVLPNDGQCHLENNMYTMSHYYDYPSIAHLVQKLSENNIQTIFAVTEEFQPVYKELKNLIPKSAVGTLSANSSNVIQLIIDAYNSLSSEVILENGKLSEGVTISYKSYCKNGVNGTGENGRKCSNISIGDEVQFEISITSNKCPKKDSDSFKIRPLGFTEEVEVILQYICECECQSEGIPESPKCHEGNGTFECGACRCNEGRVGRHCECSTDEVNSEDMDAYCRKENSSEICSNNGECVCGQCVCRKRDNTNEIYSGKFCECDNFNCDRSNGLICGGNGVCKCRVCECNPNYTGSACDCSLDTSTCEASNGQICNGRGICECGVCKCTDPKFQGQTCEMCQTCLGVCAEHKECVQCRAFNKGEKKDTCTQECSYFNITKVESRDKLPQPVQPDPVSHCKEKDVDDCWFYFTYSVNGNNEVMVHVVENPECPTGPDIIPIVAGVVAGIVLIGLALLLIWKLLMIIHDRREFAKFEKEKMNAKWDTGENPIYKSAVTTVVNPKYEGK
T1 sequence (P13612 whole entry): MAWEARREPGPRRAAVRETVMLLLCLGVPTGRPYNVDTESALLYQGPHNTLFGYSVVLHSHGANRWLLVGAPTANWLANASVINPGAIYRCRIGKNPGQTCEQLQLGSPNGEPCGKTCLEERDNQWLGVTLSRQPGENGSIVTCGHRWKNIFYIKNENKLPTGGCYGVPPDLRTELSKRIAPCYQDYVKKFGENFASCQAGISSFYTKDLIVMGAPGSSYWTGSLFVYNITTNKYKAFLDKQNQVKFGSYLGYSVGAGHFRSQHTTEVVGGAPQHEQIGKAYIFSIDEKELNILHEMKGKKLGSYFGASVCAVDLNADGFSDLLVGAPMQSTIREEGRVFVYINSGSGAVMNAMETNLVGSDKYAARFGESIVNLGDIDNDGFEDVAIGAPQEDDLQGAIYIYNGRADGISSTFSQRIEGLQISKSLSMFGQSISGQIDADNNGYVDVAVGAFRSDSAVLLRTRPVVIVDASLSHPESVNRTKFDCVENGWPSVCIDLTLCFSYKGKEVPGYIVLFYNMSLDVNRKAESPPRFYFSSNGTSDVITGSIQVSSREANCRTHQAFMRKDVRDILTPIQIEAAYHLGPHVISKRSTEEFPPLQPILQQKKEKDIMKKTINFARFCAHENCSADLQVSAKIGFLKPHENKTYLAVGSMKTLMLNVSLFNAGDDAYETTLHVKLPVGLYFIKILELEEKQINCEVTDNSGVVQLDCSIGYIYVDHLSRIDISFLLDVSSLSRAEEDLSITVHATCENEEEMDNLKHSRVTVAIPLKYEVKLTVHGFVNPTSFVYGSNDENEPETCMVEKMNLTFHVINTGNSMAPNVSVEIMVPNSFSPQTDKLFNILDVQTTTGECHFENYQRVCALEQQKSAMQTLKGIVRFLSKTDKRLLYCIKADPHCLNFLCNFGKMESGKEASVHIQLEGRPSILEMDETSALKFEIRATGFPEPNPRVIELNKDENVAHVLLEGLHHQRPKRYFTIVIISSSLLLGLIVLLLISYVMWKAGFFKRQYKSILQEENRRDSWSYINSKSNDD

| IC50 (Integrin alpha-4/beta-1 [1]) | SMILES | further results |
| --- | --- | --- |
| 151 µM | CC(C)(C)OC(=O)COc1ccc(NC(=O)Cc2ccc(NC(=O)Nc3ccccc3C(F)(F)F)cc2)cc1CCC(=O)O |  |
| 138 µM | Cc1cccc(C)c1NC(=O)Nc1ccc(CC(=O)Nc2ccc(O)c(CCC(=O)O)c2)cc1 |  |
| 190 µM | Cc1cccc(C)c1NC(=O)Nc1ccc(CC(=O)Nc2ccc(CCC(=O)O)c(OCC(=O)OC(C)(C)C)c2)cc1 |  |
| > 1000 µM | Cc1cccc(C)c1NC(=O)Nc1ccc(CC(=O)O)cc1 |  |
| 81.3 µM | Cc1cccc(C)c1NC(=O)Nc1ccc(CC(=O)Nc2ccc(OCC(=O)O)c(CCC(=O)O)c2)cc1 |  |
| 703 µM | COC(=O)[C@@H](NC(=O)[C@H](CC(=O)O)NC(=O)[C@H](CC(C)C)NC(=O)Cc1ccc(NC(=O)Nc2ccccc2C(F)(F)F)cc1)C(C)C |  |
| 64.6 µM | O=C(O)COc1cc(NC(=O)Cc2ccc(NC(=O)Nc3ccccc3C(F)(F)F)cc2)ccc1CCC(=O)OCc1ccccc1 | Activity (Integrin alpha-4/beta-1 [2]): Active; Activity (CCRF-CEM [3]): Non-toxic |
| 97.7 µM | Cc1cccc(C)c1NC(=O)Nc1ccc(CC(=O)Nc2ccc(OCC(=O)O)c(CCC(=O)NCc3ccccc3)c2)cc1 |  |
| 24.3 µM | Cc1cccc(C)c1NC(=O)Nc1ccc(CC(=O)Nc2ccc(OCC(=O)O)c(CCC(=O)OCc3ccccc3)c2)cc1 | Activity (CCRF-CEM [4]): Non-toxic; Activity (Integrin alpha-4/beta-1 [2]): Active; Activity (CCRF-CEM [3]): Non-toxic |
| 38.9 µM | Cc1cccc(C)c1NC(=O)Nc1ccc(CC(=O)Nc2ccc(OCC(=O)O)c(CCC(=O)OCc3ccc(Cl)cc3)c2)cc1 |  |
| 102 µM | Cc1cccc(C)c1NC(=O)Nc1ccc(CC(=O)Nc2ccc(OCC(=O)OC(C)(C)C)c(CCC(=O)OCc3ccccc3)c2)cc1 |  |
| 33.1 µM | O=C(O)COc1ccc(NC(=O)Cc2ccc(NC(=O)Nc3ccccc3C(F)(F)F)cc2)cc1CCC(=O)OCc1ccccc1 | Activity (CCRF-CEM [4]): Non-toxic |
| 81.3 µM | Cc1cccc(C)c1NC(=O)Nc1ccc(CC(=O)Nc2ccc(CCC(=O)OCc3ccccc3)c(OCC(=O)O)c2)cc1 |  |
| 24.5 µM | Cc1cccc(C)c1NC(=O)Nc1ccc(CC(=O)Nc2ccc(OCC(=O)O)c(CCC(=O)OCCc3ccccc3)c2)cc1 |  |
| > 1000 µM | N=C(N)NCCC[C@H](NC(=O)CN)C(=O)NCC(=O)N[C@@H](CC(=O)O)C(=O)N[C@@H](CO)C(=O)O |  |
| 209 µM | O=C(O)CCc1cc(NC(=O)Cc2ccc(NC(=O)Nc3ccccc3C(F)(F)F)cc2)ccc1O |  |
| 106 µM | Cc1cccc(C)c1NC(=O)Nc1ccc(CC(=O)Nc2ccc(OCC(=O)O)c(CCC(=O)NCCc3ccccc3)c2)cc1 |  |
| > 500 µM | O=C(O)CCc1ccc(NC(=O)Cc2ccc(NC(=O)Nc3ccccc3C(F)(F)F)cc2)cc1O |  |
| 146 µM | Cc1cccc(C)c1NC(=O)Nc1ccc(CC(=O)Nc2ccc(CCC(=O)O)c(O)c2)cc1 |  |
| > 1000 µM | O=C(O)Cc1ccc(NC(=O)Nc2ccccc2C(F)(F)F)cc1 |  |
| 79.4 µM | CC(C)(C)OC(=O)COc1cc(NC(=O)Cc2ccc(NC(=O)Nc3ccccc3C(F)(F)F)cc2)ccc1CCC(=O)O |  |
